Reference: ChEMBL document CHEMBL4373723 (J Med Chem, 2019)
Calls of active or inactive are those of the source. The calls are words filed in the database; no cut-off is given here.

Assays:
Homo sapiens [1] = organism: Homo sapiens; test: Modulation of Frizzled in human Caco2 cells assessed as protection against 0.25 to 0.5 ng/ml TcdB-induced cell rounding at 50 uM incubated for 24 hrs by phalloidin conjugated AlexaFluor488 dye based fluorescence microscopy relative to control
Frizzled-7 [2] = target: T1, Frizzled-7 (Homo sapiens, UniProt O75084); conditions: CHO
Description: Binding affinity to recombinant human Frizzled-7 (Gln33 to Leu185 residues)/human IgG1 chimeric protein expressed in CHO cells assessed as association rate constant by SPR assay

[3] = 40 min, 20 µM
Homo sapiens [4] = organism: Homo sapiens; test: Modulation of Frizzled in human Caco2 cells assessed as protection against 4 ng/ml TcdB-induced cell rounding at 50 uM incubated for 24 hrs by phalloidin conjugated AlexaFluor488 dye based fluorescence microscopy relative to control
Frizzled-7 [5] = target: T1, Frizzled-7; test: Binding affinity to recombinant human Frizzled-7 (Gln33 to Leu185 residues)/human IgG1 chimeric protein expressed in CHO cells assessed as reduction in interaction of TcdB with FZD7 incubated for 1 hr by competition ELISA; type: cell-based
[6] = 40 min, 20 µM; remark: listed apart in the source
Homo sapiens [7] = organism: Homo sapiens; test: Modulation of Frizzled in human Caco2 cells assessed as protection against 0.1 to 1 ng/ml TcdB-induced cell rounding incubated for 24 hrs by phalloidin conjugated AlexaFluor488 dye based fluorescence microscopy relative to control
[8] = Binding affinity to recombinant human/mouse Frizzled-2 (Gln29 to Leu168 residues)/human IgG1 chimeric protein expressed in mouse NS0 cells assessed as reduction in interaction of TcdB with FZD7 incubated for 1 hr by competition ELISA; type: cell-based
Frizzled-7 [9] = target: T1, Frizzled-7; type: cell-based; conditions: cho
Frizzled-7 [10] = target: T1, Frizzled-7; test: biochemical; type: cell-based, CHO; conditions: read-out: Kd
[11] = mouse, serum, 24 h, 200 µM
Cricetulus griseus = organism: Cricetulus griseus; test: Modulation of Frizzled in CHOK1 cells assessed as protection against 5 ng/ml TcdB-induced cell rounding at 50 uM incubated for 24 hrs by phalloidin conjugated AlexaFluor488 dye based fluorescence microscopy relative to control
Homo sapiens [12] = organism: Homo sapiens; test: Modulation of Frizzled in human Caco2 cells assessed as protection against TcdB-induced cell rounding incubated for 24 hrs by phalloidin conjugated AlexaFluor488 dye based fluorescence microscopy
Frizzled-7 [13] = target: T1, Frizzled-7; test: Inhibition of Frizzled-7 in HEK293 cells expressing Wnt assessed as reduction in Wnt signaling by firefly luciferase reporter gene assay; type: cell-based
[14] = Stability in presence of TCEP assessed as disulfide reduction at 20 uM measured over 40 mins at 37 degC by LC-MS analysis; type: physicochemical
[15] = Stability in cell culture medium containing 10% fetal bovine serum at 200 uM at 37 degC measured over 24 hrs by LC-MS analysis; type: ADME, cell-free, Bos taurus; conditions: cattle

Structure (SMILES): CC[C@H](C)[C@H](NC(=O)[C@H](Cc1cnc[nH]1)NC(=O)[C@H](CSSC[C@H](NC(=O)[C@H](Cc1c[nH]c2ccccc12)NC(=O)[C@H](CC(C)C)NC(=O)[C@H](CCC(=O)O)NC(=O)[C@H](CC(C)C)NC(=O)[C@H](CC(=O)O)NC(=O)[C@H](CC(=O)O)NC(=O)[C@@H](NC(C)=O)[C@H](C)O)C(=O)N[C@@H](Cc1cnc[nH]1)C(=O)N[C@H](C(=O)N[C@@H](CCSC)C(=O)N[C@@H](Cc1ccc(O)cc1)C(N)=O)[C@@H](C)CC)NC(=O)[C@H](Cc1c[nH]c2ccccc12)NC(=O)[C@H](CC(C)C)NC(=O)[C@H](CCC(=O)O)NC(=O)[C@H](CC(C)C)NC(=O)[C@H](CC(=O)O)NC(=O)[C@H](CC(=O)O)NC(=O)[C@@H](NC(C)=O)[C@H](C)O)C(=O)N[C@@H](CCSC)C(=O)N[C@@H](Cc1ccc(O)cc1)C(N)=O
- Activity (Homo sapiens [1]): Active
- Ka (Frizzled-7 [2]): 166 ×10⁵ /M/s
- Stability [3]: Unstable
- Activity (Homo sapiens [4]): inactive
- inhibition (Frizzled-7 [5]): Dose-dependent effect
- Stability [6]: Unstable
- Activity (Homo sapiens [7]): 34 to 69%
- inhibition [8]: Dose-dependent effect
- Kd (Frizzled-7 [9]): 0.64 ×10⁻³ /s
- Kd (Frizzled-7 [10]): 0.039 nM
- Stability [11]: Stable
- Activity (Cricetulus griseus): Active
- inhibition (Homo sapiens [12]): Dose-dependent effect
- IC50 (Frizzled-7 [13]): 9.2 nM
- Stability [14]: Unstable
- Stability [15]: Stable
